Laboratory results published in patent US11629118B2, “Formulations with improved stability” (INSPIRNA, INC., priority 2017, dated 2023).

Columns and labels:
[1] = Solubility study of Compound (II) in lipid excipients and surfactants; format: physicochemical; details: for solubility: thermodynamic from solid
Description: Compound (II) HCl and Compound (II) free base was weighed into vials and the appropriate amount of excipient was added to achieve the desired concentration. Heating and sonication was used, if necessary, to achieve clear solutions. Limits of solubility of Compound (II) free base and Compound (II) HCl (amorphous form) are noted in Table 1.

[2] = Further solubility study in Maisine 35-1:Gelucire 44/14:Lauroglycol 90 mixtures; details: 40-80% (w/w) Maisine 35-1; 20-40% Gelucire 44/14; 0-20% Lauroglycol 90
Description: (§1) A further solubility study of Compound (II) was conducted using lipid excipients and surfactants. Maisine 35-1 (glycerol linoleates):Gelucire 44/14 (lauroyl macrogol-32 glycerides):Lauroglycol 90 (propylene glycol monolaurate) mixtures were tested to explore the optimal combination. The following ranges of each substance were tested: (1) 40-80% (w/w) Maisine 35-1; (2) 20-40% (w/w) Gelucire 44/14; and (3) 0-20% (w/w) Lauroglycol 90.

[3] = Binary stressed-stability / compatibility study with excipients; format: physicochemical; details: in contact with Maisine 35-1 and Gelucire 44/14 (70:30 w/w)
From the text: The compatibility of Compound ([…]) with the following solubilizing/emulsifying excipients: Maisine 35-1; Gelucire 44/14; sodium oleate; sodium stearate; vitamin E TPGS; lysine; and sodium EDTA.

physchem = details: oil or lipid
Description: as §1

C[C@H](CCOc1cccc(CC(=O)O)c1)N(Cc1cccc(C(F)(F)F)c1Cl)CC(c1ccccc1)c1ccccc1.Cl [Compound (II) HCl salt]
50 mg/mL: Limit of solubility in Capmul MCM ([1]; excipient Capmul MCM) | Limit of solubility in Gelucire 50/13 ([1]; excipient Gelucire 50/13) | Limit of solubility in Plurol Oleique CC 497 ([1]; excipient Plurol Oleique CC 497)
200 mg/mL: Limit of solubility in Ethanol ([1]; excipient Ethanol) | Limit of solubility in PEG-200 ([1]; excipient PEG-200) | Limit of solubility in PEG-300 ([1]; excipient PEG-300) | Limit of solubility in PEG-400 ([1]; excipient PEG-400) | Limit of solubility in Phosal 50-PG ([1]; excipient Phosal 50-PG) | Limit of solubility in Propylene Glycol ([1]; excipient Propylene Glycol) | Limit of solubility in Tween-20 ([1]; excipient Tween-20) | Limit of solubility in Tween-80 ([1]; excipient Tween-80)
25 mg/mL: Limit of solubility in Labrafil M 1944 CS ([1]; excipient Labrafil M 1944 CS) | Limit of solubility in Labrafil M 2125 CS ([1]; excipient Labrafil M 2125 CS) | Limit of solubility in Labrafil M 2130 CS ([1]; excipient Labrafil M 2130 CS)
150 to 200 mg/mL: Solubility in Maisine 35-1:Gelucire 44/14:Lauroglycol 90 mixtures [2]
100 mg/mL: Limit of solubility in Gelucire 44/14 ([1]; excipient Gelucire 44/14) | Limit of solubility in Lauroglycol FCC ([1]; excipient Lauroglycol FCC)
150 mg/mL: Limit of solubility in Capryol 90 ([1]; excipient Capryol 90) | Limit of solubility in Capryol PGMC ([1]; excipient Capryol PGMC) | Limit of solubility in Cremophor EL ([1]; excipient Cremophor EL) | Limit of solubility in Cremophor RH-40 ([1]; excipient Cremophor RH-40) | Limit of solubility in Labrasol ([1]; excipient Labrasol) | Limit of solubility in Lauroglycol 90 ([1]; excipient Lauroglycol 90) | Limit of solubility in Maisine 35-1 ([1]; excipient Maisine 35-1) | Limit of solubility in Peceol ([1]; excipient Peceol) | Limit of solubility in Phosal 53 MCT ([1]; excipient Phosal 53 MCT) | Limit of solubility in Transcutol ([1]; excipient Transcutol) | Limit of solubility in VitE-TPGS ([1]; excipient VitE-TPGS)

C[C@H](CCOc1cccc(CC(=O)O)c1)N(Cc1cccc(C(F)(F)F)c1Cl)CC(c1ccccc1)c1ccccc1 [Compound (II), 2-{3-[(3R)-3-({[2-chloro-3-(trifluoromethyl)phenyl]methyl}(2,2-diphenylethyl)amino)butoxy]phenyl}acetic acid]
No significant degradation: Degradation ([3]; after 15 days of storage at −20° C.)
approximately 9%: Degradation ([3]; room temperature, by 15 days)
acceptable: Short-term stability ([3]; room temperature (about 20° C.) for 8 days)
> 200 mg/mL: solubility ([1]; aqueous with cosolvent or surfactant or cyclodextrin, excipient Tween-20, read-out: Limit of solubility in Tween-20) | solubility ([1]; aqueous with cosolvent or surfactant or cyclodextrin, excipient Tween-80, read-out: Limit of solubility in Tween-80) | solubility ([1]; aqueous with cosolvent or surfactant or cyclodextrin, excipient VitE-TPGS, read-out: Limit of solubility in VitE-TPGS) | solubility ([1]; oil or lipid, excipient Capryol 90, read-out: Limit of solubility in Capryol 90) | solubility ([1]; oil or lipid, excipient Capryol PGMC, read-out: Limit of solubility in Capryol PGMC) | solubility ([1]; oil or lipid, excipient Cremophor EL, read-out: Limit of solubility in Cremophor EL) | solubility ([1]; oil or lipid, excipient Cremophor RH-40, read-out: Limit of solubility in Cremophor RH-40) | solubility ([1]; oil or lipid, excipient Gelucire 44/14, read-out: Limit of solubility in Gelucire 44/14) | solubility ([1]; oil or lipid, excipient Labrafac Lipo WL 1349, heating and sonication if necessary, read-out: Limit of solubility in Labrafac Lipo WL 1349) | solubility ([1]; oil or lipid, excipient Labrafac PG, read-out: Limit of solubility in Labrafac PG) | solubility ([1]; oil or lipid, excipient Labrafil M 1944 CS, read-out: Limit of solubility in Labrafil M 1944 CS) | solubility ([1]; oil or lipid, excipient Labrafil M 2125 CS, read-out: Limit of solubility in Labrafil M 2125 CS) | solubility ([1]; oil or lipid, excipient Labrafil M 2130 CS, read-out: Limit of solubility in Labrafil M 2130 CS) | solubility ([1]; oil or lipid, excipient Labrasol, read-out: Limit of solubility in Labrasol) | solubility ([1]; oil or lipid, excipient Lauroglycol 90, read-out: Limit of solubility in Lauroglycol 90) | solubility ([1]; oil or lipid, excipient Lauroglycol FCC, read-out: Limit of solubility in Lauroglycol FCC) | solubility ([1]; oil or lipid, excipient Maisine 35-1, read-out: Limit of solubility in Maisine 35-1) | solubility ([1]; oil or lipid, excipient Peceol, read-out: Limit of solubility in Peceol) | solubility ([1]; oil or lipid, excipient Phosal 50-PG, read-out: Limit of solubility in Phosal 50-PG) | solubility ([1]; oil or lipid, excipient Phosal 53 MCT, read-out: Limit of solubility in Phosal 53 MCT) | solubility ([1]; oil or lipid, excipient Plurol Oleique CC 497, read-out: Limit of solubility in Plurol Oleique CC 497) | solubility ([1]; organic solvent or mixture, excipient Ethanol, read-out: Limit of solubility in Ethanol) | solubility ([1]; organic solvent or mixture, excipient PEG-200, read-out: Limit of solubility in PEG-200) | solubility ([1]; organic solvent or mixture, excipient PEG-300, read-out: Limit of solubility in PEG-300) | solubility ([1]; organic solvent or mixture, excipient PEG-400, read-out: Limit of solubility in PEG-400) | solubility ([1]; organic solvent or mixture, excipient Propylene Glycol, read-out: Limit of solubility in Propylene Glycol) | solubility ([1]; organic solvent or mixture, excipient Transcutol, read-out: Limit of solubility in Transcutol)
> 250 mg/mL: solubility (physchem)
150 mg/mL: solubility ([1]; oil or lipid, excipient Gelucire 50/13, read-out: Limit of solubility in Gelucire 50/13)
